Data from US20180296531A1, “STIMULATION OF 11B-HSD2 EXPRESSION TO IMPROVE HORMONAL THERAPY OF STEROID-DEPENDENT DISEASE” (THE CLEVELAND CLINIC FOUNDATION, priority 2015, published 2018).

System: PSA, KLF9, PMEPA1 expression
Assay: Steroid-induced gene expression (PSA, KLF9, PMEPA1) by qPCR in long-term Enz-treated LAPC4 cells
Type: cell-based, human
Conditions: LAPC4 treated with Enz 36 days, steroid 24 hours
Description: LAPC4 cells were treated with Enz for 36 days and then seeded into 12 well plates coated with poly-DL-ornithine at 50% confluence. […] Total RNA was extracted with a GenElute Mammalian Total RNA miniprep kit (Sigma-Aldrich) and 1 μg RNA was reverse-transcribed to cDNA with the iScript cDNA Synthesis Kit (Bio-Rad). An ABI 7500 Real-Time PCR machine (Applied Biosystems) was used to perform the qPCR analysis, using iTaq Fast SYBR Green Supermix with ROX (Bio-Rad) in 96-well plates at a final reaction volume of 10 μl. The qPCR analysis was carried out in triplicate with suitable primers. Each mRNA transcript was quantitated by normalizing the sample values to RPLP0 and to vehicle treated cells (for steroid treated cells). All gene expression studies were repeated in independent experiments.

Compound	PMEPA1 expression	KLF9 expression	PSA expression
C[C@]12CCC(=O)C[C@@H]1CC[C@@H]1[C@@H]2CC[C@]2(C)[C@@H](O)CC[C@@H]12 [DHT, 5α-dihydrotestosterone]	induced with DHT only		
C[C@]12CCC(=O)C=C1CC[C@@H]1[C@@H]2[C@@H](O)C[C@@]2(C)[C@H]1CC[C@]2(O)C(=O)CO [cortisol]		induced	cortisol induction of PSA expression
